# In patent publication US12194051B2, “5-azaindazole derivatives as adenosine receptor antagonists” (MERCK PATENT GMBH, priority 2018, dated 2025):
# What was measured:
# [1] = molecular target: T1, human A2A receptors (Homo sapiens, UniProt P29274); assay: Inhibition of human A2A receptor in recombinant HEK293 cells, cAMP quantification (HTRF); type: cell-based; details: read-out: A2A (Category)
# T1 construct: expressed in transfected cells; host or cells: HEK293
# Experimental: (§1) The functional activities of human A2A and A2B receptors were determined by quantification of cAMP, being the second messenger for adenosine receptors.
# (§2) After a 15 min incubation, HTRF reagents (cAMP dynamic 2, Cis Bio) were added and the cellular cAMP levels were determined using the ENVISION (Perkin Elmer) plate reader.
# [2] = molecular target: T2, human A2B receptors (Homo sapiens, UniProt P29275); assay: Inhibition of human A2B receptor in recombinant HEK293 cells, cAMP quantification (HTRF); type: cell-based; details: read-out: A2B (Category)
# T2 construct: expressed in transfected cells; host or cells: HEK293
# T2 sequence (P29275 1-332): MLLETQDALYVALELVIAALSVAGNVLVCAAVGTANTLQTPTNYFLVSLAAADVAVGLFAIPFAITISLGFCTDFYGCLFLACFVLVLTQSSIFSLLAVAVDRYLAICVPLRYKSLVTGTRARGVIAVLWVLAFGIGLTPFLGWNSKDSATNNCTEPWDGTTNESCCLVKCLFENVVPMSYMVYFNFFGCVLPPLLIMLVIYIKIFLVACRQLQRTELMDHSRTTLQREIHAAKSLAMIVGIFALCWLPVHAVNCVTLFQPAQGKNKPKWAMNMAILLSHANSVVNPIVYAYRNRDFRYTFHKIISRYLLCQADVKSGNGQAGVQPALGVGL
# Experimental: as §1, §2
# T1 sequence (P29274 whole entry): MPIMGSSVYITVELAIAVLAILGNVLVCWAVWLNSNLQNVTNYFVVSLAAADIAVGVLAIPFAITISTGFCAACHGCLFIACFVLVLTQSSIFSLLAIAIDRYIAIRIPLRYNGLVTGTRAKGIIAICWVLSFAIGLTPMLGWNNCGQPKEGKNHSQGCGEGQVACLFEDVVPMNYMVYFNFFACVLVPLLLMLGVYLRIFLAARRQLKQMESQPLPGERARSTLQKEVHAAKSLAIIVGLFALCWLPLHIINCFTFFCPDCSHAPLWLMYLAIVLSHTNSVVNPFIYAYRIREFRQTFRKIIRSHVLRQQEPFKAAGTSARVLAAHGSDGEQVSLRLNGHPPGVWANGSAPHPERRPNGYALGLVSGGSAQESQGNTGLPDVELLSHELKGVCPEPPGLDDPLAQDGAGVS
SMILES,IC50 [1],IC50 [2]
"CS(=O)(=O)Cn1nc(Nc2ccc(F)cc2)c2cnc(C(=O)N3[C@@H]4CC[C@H]3C[C@@H](O)C4)cc21 [Compound 30, [3-(4-fluoroanilino)-1-(methylsulfonylmethyl)pyrazolo[4,3-c]pyridin-6-yl]-(3-endo-hydroxy-8-azabicyclo[3.2.1]octan-8-yl)methanone]",< 100 nM,< 1000 nM
"CS(=O)(=O)Cn1nc(Nc2cccc(F)c2)c2cnc(C(=O)N3[C@@H]4CC[C@H]3C[C@@H](O)C4)cc21 [Compound 31, [3-(3-fluoroanilino)-1-(methylsulfonylmethyl)pyrazolo[4,3-c]pyridin-6-yl]-(3-endo-hydroxy-8-azabicyclo[3.2.1]octan-8-yl)methanone]",< 100 nM,< 100 nM
"O=C(c1cc2c(cn1)c(Nc1cccc(F)c1)nn2CC(F)(F)F)N1CCOCC(O)C1 (centres unmarked) [Compound 32, [3-(3-fluoroanilino)-1-(2,2,2-trifluoroethyl)pyrazolo[4,3-c]pyridin-6-yl]-(6-hydroxy-1,4-oxazepan-4-yl)methanone]",< 100 nM,< 1000 nM
"O=C(c1cc2c(cn1)c(Nc1ccc(F)cc1)nn2CC(F)(F)F)N1CCOCC(O)C1 (centres unmarked) [Compound 33, [3-(4-fluoroanilino)-1-(2,2,2-trifluoroethyl)pyrazolo[4,3-c]pyridin-6-yl]-(6-hydroxy-1,4-oxazepan-4-yl)methanone]",< 100 nM,< 1000 nM
"CC1(O)CCN(C(=O)c2cc3c(cn2)c(Nc2ccc(F)cc2)nn3CC(F)(F)F)CC1 [Compound 34, [3-(4-fluoroanilino)-1-(2,2,2-trifluoroethyl)pyrazolo[4,3-c]pyridin-6-yl]-(4-hydroxy-4-methyl-1-piperidyl)methanone]",< 100 nM,< 1000 nM
"CC1(O)CCN(C(=O)c2cc3c(cn2)c(Nc2cccc(F)c2)nn3CC(F)(F)F)CC1 [Compound 35, [3-(3-fluoroanilino)-1-(2,2,2-trifluoroethyl)pyrazolo[4,3-c]pyridin-6-yl]-(4-hydroxy-4-methyl-1-piperidyl)methanone]",< 100 nM,< 1000 nM
"O=C(c1cc2c(cn1)c(Nc1cccc(Cl)c1)nn2CC(F)(F)F)N1CCCOCC1 [Compound 37, [3-(3-chloroanilino)-1-(2,2,2-trifluoroethyl)pyrazolo[4,3-c]pyridin-6-yl]-(1,4-oxazepan-4-yl)methanone]",< 100 nM,< 1000 nM
"O=C(c1cc2c(cn1)c(Nc1ccc(Cl)cc1)nn2CC(F)(F)F)N1CCCOCC1 [Compound 38, [3-(4-chloroanilino)-1-(2,2,2-trifluoroethyl)pyrazolo[4,3-c]pyridin-6-yl]-(1,4-oxazepan-4-yl)methanone]",< 100 nM,< 100 nM
"[2H]C1([2H])COCCN(C(=O)c2cc3c(cn2)c(Nc2cccc(F)c2)nn3CC(F)(F)F)C1 [Compound 40, (6,6-dideuterio-1,4-oxazepan-4-yl)-[3-(3-fluoroanilino)-1-(2,2,2-trifluoroethyl)pyrazolo[4,3-c]pyridin-6-yl]methanone]",< 100 nM,< 100 nM
"[2H]C1([2H])COCCN(C(=O)c2cc3c(cn2)c(Nc2ccc(F)cc2)nn3CC(F)(F)F)C1 [Compound 41, (6,6-dideuterio-1,4-oxazepan-4-yl)-[3-(4-fluoroanilino)-1-(2,2,2-trifluoroethyl)pyrazolo[4,3-c]pyridin-6-yl]methanone]",< 100 nM,< 1000 nM
"O=C(c1cc2c(cn1)c(Nc1ccccn1)nn2CC(F)(F)F)N1CCCOCC1 [Compound 42, 1,4-oxazepan-4-yl-[3-(2-pyridylamino)-1-(2,2,2-trifluoroethyl)pyrazolo[4,3-c]pyridin-6-yl]methanone]",< 100 nM,< 100 nM
"O=C(c1cc2c(cn1)c(Nc1ccc(F)cn1)nn2CC(F)(F)F)N1CCCOCC1 [Compound 44, [3-[(5-fluoro-2-pyridyl)amino]-1-(2,2,2-trifluoroethyl)pyrazolo[4,3-c]pyridin-6-yl]-(1,4-oxazepan-4-yl)methanone]",< 100 nM,< 100 nM
"O=C(c1cc2c(cn1)c(Nc1cc(F)ccn1)nn2CC(F)(F)F)N1CCCOCC1 [Compound 46, [3-[(4-fluoro-2-pyridyl)amino]-1-(2,2,2-trifluoroethyl)pyrazolo[4,3-c]pyridin-6-yl]-(1,4-oxazepan-4-yl)methanone]",< 100 nM,< 100 nM
"O=C(c1cc2c(cn1)c(Nc1ccccn1)nn2CC(F)(F)F)N1CC2CCC(C1)O2 [Compound 47, 8-oxa-3-azabicyclo[3.2.1]octan-3-yl-[3-(2-pyridylamino)-1-(2,2,2-trifluoroethyl)pyrazolo[4,3-c]pyridin-6-yl]methanone]",< 100 nM,< 100 nM
"O=C(c1cc2c(cn1)c(Nc1ccc(Cl)cn1)nn2CC(F)(F)F)N1CCCOCC1 [Compound 48, [3-[(5-chloro-2-pyridyl)amino]-1-(2,2,2-trifluoroethyl)pyrazolo[4,3-c]pyridin-6-yl]-(1,4-oxazepan-4-yl)methanone]",< 100 nM,< 100 nM
"O=C(c1cc2c(cn1)c(Nc1cccc(F)n1)nn2CC(F)(F)F)N1CCCOCC1 [Compound 49, [3-[(6-fluoro-2-pyridyl)amino]-1-(2,2,2-trifluoroethyl)pyrazolo[4,3-c]pyridin-6-yl]-(1,4-oxazepan-4-yl)methanone]",< 100 nM,< 100 nM
"O=C(c1cc2c(cn1)c(Nc1cccc(Cl)n1)nn2CC(F)(F)F)N1CCCOCC1 [Compound 51, [3-[(6-chloro-2-pyridyl)amino]-1-(2,2,2-trifluoroethyl)pyrazolo[4,3-c]pyridin-6-yl]-(1,4-oxazepan-4-yl)methanone]",< 100 nM,< 1000 nM
"O=C(c1cc2c(cn1)c(Nc1ccccn1)nn2CC(F)(F)F)N1CCOCC(O)C1 (centres unmarked) [Compound 52, (6-hydroxy-1,4-oxazepan-4-yl)-[3-(2-pyridylamino)-1-(2,2,2-trifluoroethyl)pyrazolo[4,3-c]pyridin-6-yl]methanone]",< 100 nM,< 100 nM

# The next lines start with the values.
IC50 [1],IC50 [2],SMILES
< 100 nM,< 100 nM,"CC1(O)CCN(C(=O)c2cc3c(cn2)c(Nc2ccccn2)nn3CC(F)(F)F)CC1 [Compound 53, (4-hydroxy-4-methyl-1-piperidyl)-[3-(2-pyridylamino)-1-(2,2,2-trifluoroethyl)pyrazolo[4,3-c]pyridin-6-yl]methanone]"
< 100 nM,< 100 nM,"[2H]C1([2H])COCCN(C(=O)c2cc3c(cn2)c(Nc2ccccn2)nn3CC(F)(F)F)C1 [Compound 59, (6,6-dideuterio-1,4-oxazepan-4-yl)-[3-(2-pyridylamino)-1-(2,2,2-trifluoroethyl)pyrazolo[4,3-c]pyridin-6-yl]methanone]"
< 100 nM,< 100 nM,"[2H]C1([2H])COCCN(C(=O)c2cc3c(cn2)c(Nc2cc(F)ccn2)nn3CC(F)(F)F)C1 [Compound 60, (6,6-dideuterio-1,4-oxazepan-4-yl)-[3-[(4-fluoro-2-pyridyl)amino]-1-(2,2,2-trifluoroethyl)pyrazolo[4,3-c]pyridin-6-yl]methanone]"
< 100 nM,< 100 nM,"O=C(c1cc2c(cn1)c(Nc1cnccn1)nn2CC(F)(F)F)N1CCCOCC1 [Compound 61, 1,4-oxazepan-4-yl-[3-(pyrazin-2-ylamino)-1-(2,2,2-trifluoroethyl)pyrazolo[4,3-c]pyridin-6-yl]methanone]"
< 100 nM,< 1000 nM,"O=C(c1cc2c(cn1)c(Nc1cc(C(F)(F)F)ccn1)nn2CC(F)(F)F)N1CCCOCC1 [Compound 62, 1,4-oxazepan-4-yl-[1-(2,2,2-trifluoroethyl)-3-[[4-(trifluoromethyl)-2-pyridyl]amino]pyrazolo[4,3-c]pyridin-6-yl]methanone]"
< 100 nM,< 100 nM,"COc1ccnc(Nc2nn(CC(F)(F)F)c3cc(C(=O)N4CCCOCC4)ncc23)c1 [Compound 63, [3-[(4-methoxy-2-pyridyl)amino]-1-(2,2,2-trifluoroethyl)pyrazolo[4,3-c]pyridin-6-yl]-(1,4-oxazepan-4-yl)methanone]"
< 100 nM,< 100 nM,"O=C(c1cc2c(cn1)c(Nc1cc(Cl)ccn1)nn2CC(F)(F)F)N1CCCOCC1 [Compound 64, [3-[(4-chloro-2-pyridyl)amino]-1-(2,2,2-trifluoroethyl)pyrazolo[4,3-c]pyridin-6-yl]-(1,4-oxazepan-4-yl)methanone]"
< 100 nM,< 1000 nM,"O=C(c1cc2c(cn1)c(Nc1ccc(F)c(Cl)n1)nn2CC(F)(F)F)N1CCCOCC1 [Compound 65, [3-[(6-chloro-5-fluoro-2-pyridyl)amino]-1-(2,2,2-trifluoroethyl)pyrazolo[4,3-c]pyridin-6-yl]-(1,4-oxazepan-4-yl)methanone]"
< 100 nM,< 1000 nM,"O=C(c1cc2c(cn1)c(Nc1cc(Cl)c(F)cn1)nn2CC(F)(F)F)N1CCCOCC1 [Compound 66, [3-[(4-chloro-5-fluoro-2-pyridyl)amino]-1-(2,2,2-trifluoroethyl)pyrazolo[4,3-c]pyridin-6-yl]-(1,4-oxazepan-4-yl)methanone]"
< 100 nM,< 1000 nM,"Cc1ccnc(Nc2nn(CC(F)(F)F)c3cc(C(=O)N4CCCOCC4)ncc23)c1 [Compound 68, [3-[(4-methyl-2-pyridyl)amino]-1-(2,2,2-trifluoroethyl)pyrazolo[4,3-c]pyridin-6-yl]-(1,4-oxazepan-4-yl)methanone]"
